Measured values as given in PMC3411462, “Long-acting κ opioid antagonists nor-BNI, GNTI and JDTic: pharmacokinetics in mice and lipophilicity” (BMC Pharmacology, 2012).
“Also recorded” adds a separate entry of the source.

Key:
mice = assay: Fatalities and behavioral effects after i.p. administration
Procedure: Experiments were performed between 10 am and 6 pm. Mice were not used in other experiments, or exposed to other drugs, before testing began.
Doses are reported by weight of the specified salt. Intraperitoneal injections were administered in distilled water vehicle (10 mL kg^-1). Body mass was measured to ±0.1 g. Some values were inadvertently measured on a low-precision balance (± 2.5 g); these timepoints were replicated at ±0.1 g.

[1] = Plasma binding (unbound fraction by ultracentrifugation); assay type: in vitro ADME; settings: 5 μM drug, mean, n = 3
Procedure: Unbound fractions in brain homogenate and plasma were determined by ultracentrifugation as described previously. Briefly, drug-spiked matrices (5 μM drug in plasma or brain homogenate) were centrifuged at 600,000 g for 5 h at 37 °C (plasma) or 5 °C (brain). Aliquots of the middle (water) layer were added to an equal volume of blank matrix and extracted with 5 volumes of acetonitrile containing internal standard. Aliquots of the original spiked matrix were mixed with an equal volume of blank matrix and 2 volumes of plasma ultrafiltrate (plasma) or phosphate-buffered saline (tissue) and extracted with 10 volumes of acetonitrile. Extracts were centrifuged and analyzed by LC-MS-MS. Fraction unbound was calculated from the ratio of concentration in the water layer to that in the original spiked matrix, corrected for dilution as described previously.

[2] = Octanol-buffer distribution (log D7.4); assay type: physicochemical; settings: for logD / logD at 1 min / logD at 10 min / logD at 30 min: 1-octanol/PBS; for logD: pH 7.4, pooled mixing times 1, 10, 30 min; for logD at 1 min: mixing time 1 min; for logD at 1 min / logD at 10 min / logD at 30 min: octanol/PBS pH 7.4; for logD at 10 min: mixing time 10 min; for logD at 30 min: mixing time 30 min
Procedure: Phosphate-buffered saline (PBS, pH 7.4) and 1-octanol were mutually saturated by vigorous stirring at room temperature for 18 h, and then separated. Drug solutions of 0.1 mg mL^-1 in PBS were prepared, and 500 μL aliquots were added to 1.5 mL micro-centrifuge tubes with an equal volume of 1-octanol. Three samples were vortex-mixed for 1, 10 and 30 minutes respectively, then centrifuged at room temperature (12,000 rpm for 15 minutes). Aliquots of the upper octanol layer were removed by pipette. A disposable syringe was inserted while bubbling air through the upper layer, an aliquot of the lower PBS layer withdrawn, and the needle removed before transferring. Samples were stored in glass sample vials at −20 °C until analysis by LC-MS-MS.
Drug concentrations (ng mL^-1) refer to the free base, and were measured by liquid chromatography-tandem mass spectrometry (LC-MS-MS) as described previously. Briefly, samples were shaken with 3 volumes of methanol and centrifuged at 3000 g. Aliquots of the supernatants were diluted with 5 volumes of water containing an appropriate internal standard. Extracts from in vitro and in vivo experiments were analyzed by multiple reaction monitoring on an API3000 or API4000 LC-MS-MS system with electrospray ion source, controlled and analyzed using the Analyst software package (Applied Biosystems, Foster City, CA). Chromatography was conducted on a Sprite Armor C18 analytical column (20 × 2.1 mm, 10 μm particle size, Analytical Sales and Products, Pompton Plains, NJ) with a 0.5 μm PEEK guard filter. Compounds were eluted with a gradient from 2% to 95% acetonitrile in water, both containing 0.1% formic acid. Compounds were detected in positive ion mode, tuned to the mass transition with the largest intensity. Analyte concentrations were determined by comparison of analyte:internal standard peak area ratios to those of standards prepared in the appropriate matrices.

[3] = Brain homogenate binding (unbound fraction by ultracentrifugation); assay type: in vitro ADME
Procedure: Unbound fractions in brain homogenate and plasma were determined by ultracentrifugation as described previously. Briefly, drug-spiked matrices (5 μM drug in plasma or brain homogenate) were centrifuged at 600,000 g for 5 h at 37 °C (plasma) or 5 °C (brain). Aliquots of the middle (water) layer were added to an equal volume of blank matrix and extracted with 5 volumes of acetonitrile containing internal standard. Aliquots of the original spiked matrix were mixed with an equal volume of blank matrix and 2 volumes of plasma ultrafiltrate (plasma) or phosphate-buffered saline (tissue) and extracted with 10 volumes of acetonitrile. Extracts were centrifuged and analyzed by LC-MS-MS. Fraction unbound was calculated from the ratio of concentration in the water layer to that in the original spiked matrix, corrected for dilution as described previously. Based on previous results for basic drugs, in vivo free fraction in brain was assumed to be at least 3-fold lower than the in vitro free fraction in brain homogenate.

human P-gp = target: T1, human P-gp (Homo sapiens, UniProt P08183); assay: LLC-PK1-MDR1 cell permeation and efflux; assay type: in vitro ADME; settings: cells expressing human P-gp
T1 construct: expressed in transfected cells; host or cells: LLC-PK1 (pig kidney epithelial cells) transfected with human MDR1 at Amgen
Procedure: (§1) Pig kidney epithelial cells (LLC-PK1) were obtained from American Type Culture Collection (Manassas, VA). Transfection with human MDR1 gene was conducted at Amgen (Thousand Oaks, CA). Bi-directional permeation assays were performed as described previously. […] Cells were seeded onto Transwell filter membranes (0.4 μm pore size, surface area = 0.7 cm2) at a density of 200,000 cells/well. Compound incubations (in duplicate) were performed 5 days post-seeding. To determine efflux, compounds were tested at 5 μM in the presence of 0.1% BSA. […] Samples were analyzed by LC-MS-MS.

P-gp (human MDR1) = target: T2, P-gp (human MDR1) (Homo sapiens, UniProt P08183); assay: LLC-PK1-MDR1 cell permeation and efflux; assay type: in vitro ADME; settings: for Papp A→B at 120 min, 5 μM / Papp B→A at 120 min, 5 μM: pig (LLC-PK1 cells) transfected with human MDR1, LLC-PK1, 0.1% BSA, n = 2; for Papp A→B at 120 min, 5 μM: apical to basolateral; for Papp B→A at 120 min, 5 μM: basolateral to apical; for efflux ratio at 120 min, 5 μM: pig (LLC-PK1 cells) transfected with human MDR1, LLC-PK1-MDR1 monolayers, read-out: Efflux ratio (B → A/A → B)
T2 construct: expressed in transfected cells; host or cells: LLC-PK1 (pig kidney epithelial cells) transfected with human MDR1 at Amgen
Procedure: as §1

[4] = 5 μM drug, mean, n = 3, corrected for dilution, read-out: Fraction unbound, Brain homogenate
[5] = Brain homogenate, read-out: % free (uncorrected)

T2 sequence (P08183 whole entry): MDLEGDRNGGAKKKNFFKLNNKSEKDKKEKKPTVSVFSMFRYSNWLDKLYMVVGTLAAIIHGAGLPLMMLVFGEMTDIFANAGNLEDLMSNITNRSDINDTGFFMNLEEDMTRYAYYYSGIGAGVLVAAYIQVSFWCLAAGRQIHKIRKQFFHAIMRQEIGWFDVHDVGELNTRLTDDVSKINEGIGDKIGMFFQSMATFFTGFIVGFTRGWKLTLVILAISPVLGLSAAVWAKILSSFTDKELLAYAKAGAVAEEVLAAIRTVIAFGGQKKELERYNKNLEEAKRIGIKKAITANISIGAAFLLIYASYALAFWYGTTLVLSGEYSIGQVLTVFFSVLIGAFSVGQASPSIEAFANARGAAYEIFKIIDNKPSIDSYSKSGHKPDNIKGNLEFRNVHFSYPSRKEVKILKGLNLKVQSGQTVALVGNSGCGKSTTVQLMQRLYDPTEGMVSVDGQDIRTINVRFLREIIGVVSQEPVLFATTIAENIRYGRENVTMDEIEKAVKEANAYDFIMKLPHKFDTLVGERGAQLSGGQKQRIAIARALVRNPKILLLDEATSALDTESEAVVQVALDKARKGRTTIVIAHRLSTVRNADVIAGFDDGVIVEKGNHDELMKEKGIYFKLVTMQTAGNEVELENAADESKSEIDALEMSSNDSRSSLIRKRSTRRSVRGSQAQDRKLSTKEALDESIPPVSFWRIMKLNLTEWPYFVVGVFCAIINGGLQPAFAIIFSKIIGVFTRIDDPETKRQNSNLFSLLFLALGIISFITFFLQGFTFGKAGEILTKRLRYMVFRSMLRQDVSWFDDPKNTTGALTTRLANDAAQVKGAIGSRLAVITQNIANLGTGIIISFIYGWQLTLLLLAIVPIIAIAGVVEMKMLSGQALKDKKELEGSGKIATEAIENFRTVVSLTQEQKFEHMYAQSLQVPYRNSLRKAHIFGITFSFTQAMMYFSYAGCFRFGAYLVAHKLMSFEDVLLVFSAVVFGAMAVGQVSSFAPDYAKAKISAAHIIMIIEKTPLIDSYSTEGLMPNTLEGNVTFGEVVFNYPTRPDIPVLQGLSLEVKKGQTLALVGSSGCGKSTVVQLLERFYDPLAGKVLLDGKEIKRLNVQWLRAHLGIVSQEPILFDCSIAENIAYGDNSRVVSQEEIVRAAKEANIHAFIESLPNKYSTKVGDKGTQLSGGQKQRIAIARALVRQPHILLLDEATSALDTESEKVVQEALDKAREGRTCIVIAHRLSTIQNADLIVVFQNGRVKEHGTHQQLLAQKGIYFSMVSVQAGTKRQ
T1 sequence (P08183 whole entry): as above

| Compound | Fatalities (mice; 10 mg kg^-1, 15 mice monitored for at least 30 minutes) | Time to death after injection (mice; 30 mg kg^-1) [min] | Fatalities (mice; 30 mg kg^-1, three mice) | fraction unbound at 5 h, 5 μM [1] | logD [2] | logD at 1 min [2] | logD at 10 min [2] | logD at 30 min [2] | Log10D7.4 octanol:buffer (pH 7.4) ([2]; mean, n = 3) | fraction unbound at 5 h, 5 μM [3, 4] | fraction unbound at 5 h, 5 μM [3, 5] | Active transport / P-gp-mediated efflux (human P-gp) | Papp A→B at 120 min, 5 μM (P-gp (human MDR1)) [×10⁻⁶ cm/s] | Papp B→A at 120 min, 5 μM (P-gp (human MDR1)) [×10⁻⁶ cm/s] | efflux ratio at 120 min, 5 μM (P-gp (human MDR1)) | Behavioral effects observed (mice; 100 mg kg^-1) | Fatalities (mice; 100 mg kg^-1) | fraction unbound at 5 h, 5 μM ([3]; assumed at least 3-fold lower than in homogenate, read-out: Fu,brain (in vivo est.)) | fraction unbound at 5 h, 5 μM ([3]; mouse, assumed at least 3-fold lower than in homogenate, read-out: Fu,brain (in vivo est.)) |
| --- | --- | --- | --- | --- | --- | --- | --- | --- | --- | --- | --- | --- | --- | --- | --- | --- | --- | --- | --- |
| N=C(N)Nc1ccc2[nH]c3c(c2c1)C[C@@]1(O)[C@H]2Cc4ccc(O)c5c4[C@@]1(CCN2CC1CC1)[C@H]3O5 [GNTI, 5’-guanidinonaltrindole] | no fatalities | ≤ 11 | all three mice unexpectedly became ataxic, followed by convulsions and death | 0.28 | -0.08 | -0.07 | -0.11 | -0.0527 | -0.1 | 0.07 | 0.19 | did not; also recorded: No active transport | 0.4 | 0.6 | 1.5 |  |  |  |  |
| CC(C)[C@@H](CN1CC[C@@](C)(c2cccc(O)c2)[C@@H](C)C1)NC(=O)[C@H]1Cc2ccc(O)cc2CN1 [JDTic, (3R)-7-Hydroxy-N-((1S)-1-{[(3R,4R)-4-(3-hydroxyphenyl)-3,4-dimethyl-1-piperidinyl]methyl}-2-methylpropyl)-1,2,3,4-tetrahydro-3-isoquinolinecarboxamide] |  |  |  | 0.19 | 1.84 | 1.84 | 1.9 | 1.77 |  | 0.07 | 0.18 | showed P-gp-mediated efflux; also recorded: very high efflux ratio | 0.5 | 24 | 48 | Only mild behavioral effects, such as hiccup-like spasms and shivering | no fatalities | < 0.0233 |  |
| Oc1ccc2c3c1O[C@H]1c4[nH]c5c(c4C[C@@]4(O)[C@@H](C2)N(CC2CC2)CC[C@]314)C[C@@]1(O)[C@H]2Cc3ccc(O)c4c3[C@@]1(CCN2CC1CC1)[C@H]5O4 [nor-BNI, norbinaltorphimine] |  |  |  | 0.51 | 1.53 | 1.43 | 1.59 | 1.57 |  | 0.12 | 0.28 | did not; also recorded: No active transport | 0.2 | 0.3 |  | Only mild behavioral effects, such as hiccup-like spasms and shivering | no fatalities |  | < 0.04 |
